Experimental data from PMC3903666 (Analytical biochemistry, 2012).
Counter-ions that a name gives are not always drawn.

What was measured:
[1] = molecular target: T1, Af SidA (Aspergillus fumigatus, UniProt E9QYP0); test: Fluorescence polarization displacement assay in high throughput screening; format: binding; conditions: 10 μM compound, 2 μM Af SidA, 30 nM chromophore 4, 2% DMSO
[2] = molecular target: T1, Af SidA; test: Ornithine hydroxylation activity assay and inhibition of Af SidA; format: biochemical
[3] = molecular target: T1, Af SidA; test: Fluorescence polarization displacement assay, Af SidA; format: binding
[4] = molecular target: T1, Af SidA; test: Fluorescence polarization binding assay, Af SidA
[5] = molecular target: KMO (kynurenine 3-monooxygenase) (Pseudomonas fluorescens, UniProt Q84HF5); test: Fluorescence polarization binding assay, KMO
Sequence of KMO (kynurenine 3-monooxygenase) (Q84HF5 whole entry): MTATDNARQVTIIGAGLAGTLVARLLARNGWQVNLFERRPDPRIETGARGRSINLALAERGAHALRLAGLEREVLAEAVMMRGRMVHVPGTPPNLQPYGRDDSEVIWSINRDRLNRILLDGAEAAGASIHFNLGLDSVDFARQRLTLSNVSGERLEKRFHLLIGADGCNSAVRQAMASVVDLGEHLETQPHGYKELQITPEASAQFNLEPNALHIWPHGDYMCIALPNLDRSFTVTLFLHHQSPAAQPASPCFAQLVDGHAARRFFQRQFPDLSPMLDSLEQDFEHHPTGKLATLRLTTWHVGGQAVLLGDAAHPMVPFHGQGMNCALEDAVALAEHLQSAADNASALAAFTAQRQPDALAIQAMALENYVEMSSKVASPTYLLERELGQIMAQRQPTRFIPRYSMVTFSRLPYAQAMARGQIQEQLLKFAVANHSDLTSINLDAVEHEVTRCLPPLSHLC

T1 sequence (E9QYP0 whole entry): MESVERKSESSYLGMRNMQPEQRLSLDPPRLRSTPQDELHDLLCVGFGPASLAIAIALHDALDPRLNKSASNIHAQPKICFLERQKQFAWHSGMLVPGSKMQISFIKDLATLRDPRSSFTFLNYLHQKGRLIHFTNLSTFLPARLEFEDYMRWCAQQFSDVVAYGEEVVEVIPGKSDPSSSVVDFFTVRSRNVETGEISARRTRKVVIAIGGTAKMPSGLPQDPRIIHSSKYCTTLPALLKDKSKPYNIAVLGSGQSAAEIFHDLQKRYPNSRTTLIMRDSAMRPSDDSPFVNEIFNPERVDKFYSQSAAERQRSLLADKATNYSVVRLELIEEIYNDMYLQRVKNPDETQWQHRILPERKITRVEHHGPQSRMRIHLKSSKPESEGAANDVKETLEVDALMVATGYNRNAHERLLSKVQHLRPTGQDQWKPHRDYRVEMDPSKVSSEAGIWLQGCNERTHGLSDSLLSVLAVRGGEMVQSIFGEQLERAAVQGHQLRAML

## C[n+]1cc2c3c(ccc2c2ccc4cc5c(cc4c21)OCO5)OCO3 [Sanguinarine, sanguinarine sulfate]
[1]
  decrease of the anisotropy value in the screen: 20%
[2]
  IC50: 500 ± 90 µM
[2]; in the presence of NADPH and ornithine, inhibitor up to 1000 μM
  inhibition of Af SidA activity observed: 100%

## NCCC[C@H](N)C(=O)O [Ornithine, ornithine]
[3]
  Kd: 4000 ± 1000 µM

## COc1ccc2cc([C@H](C)C(=O)O)ccc2c1 [naproxen]
[3]; negative hit, Figure 9S
  binding to Af SidA: did not bind

## CN(C)c1ccc2c(c1)Oc1cc(N(C)C)ccc1C21OC(=O)c2ccc(C(=O)NCCCCCC(=O)NCCCCCCOP(=O)(O)OP(=O)(O)OCC3OC(n4cnc5c(N)ncnc54)C(O)C3O)cc21 (centres unmarked) [Chromophore 3]
[4]
  Kd: 9 ± 5 µM
[5]
  Kd: 10 ± 2 µM

## COc1ccc2cc3[n+](cc2c1OC)CCc1cc2c(cc1-3)OCO2 [berberine]
[3]; addition of up to 1 mM compound, Figure 9S
  decrease in anisotropy (specificity of binding to Af SidA): did not produce a decrease in anisotropy similar to sanguinarine

## CN(C)c1ccc2c(c1)Oc1cc(N(C)C)ccc1C21OC(=O)c2cc(C(=O)NCCCCCC(=O)NCCCCCCOP(=O)(O)OP(=O)(O)OCC3OC(n4cnc5c(N)ncnc54)C(O)C3O)ccc21 (centres unmarked) [Chromophore 4]
[4]
  Kd: 2.1 ± 0.2 µM
[5]
  Kd: 0.6 ± 0.05 µM

## NCCCC[C@H](N)C(=O)O [Lysine, lysine]
[3]
  Kd: 11000 ± 1000 µM
